Assay results from patent US8252835B2, “Compounds and methods for treating estrogen receptor-related diseases” (Shenogen Pharma Group Ltd., priority 2006, dated 2012).

Key:
MCF7 cell xenografts = assay: MCF7 xenografts in nude mice, established tumors; format: in vivo; details: 5 mg per mouse by gavage every other day for 15 days, FIG. 12
Description: (§1) The vial was wrapped with aluminium foil and placed on a rocker at 37° C. for several hours. […] The Icaritin solution was administered to mice using the gavage technique. For gavaging, we used Animal Feeding Needles (Popper; cat No. 9921, size: 20GX1.1/2).
(§2) Tumor formation was assayed in female athymic nude mice (6 weeks old, strain CDI nu/nu, Charles River Breeding Laboratory). MCF7 cells or MDA-MB-231 cells at the concentration of 1×10^7 cells in 200 μl Matrigel (BD Biosciences) were injected into the mice by the mammary fatpad injection. A group of 5 mice were injected with each type of breast cancer cells. […] Tumor disappearance was determined by palpation, and the sizes of tumors were also monitored by measuring two perpendicular diameters with vernier calipers every other day and photographed.

MCF7 cells [1] = assay: MCF7 surviving cell count (hemocytometer); details: two weeks
[2] = system: human breast cancer BCAP-37 cells xenografts; assay: Human breast cancer BCAP-37 xenografts in nude mice; format: in vivo, BALB/c-nu mice; details: 15 days, FIG. 14a
From the text: The original nude mice bearing BCAP-37 breast cancer were provided by the Institute of Materia Medica, Chinese Academy of Medical Sciences. Tumor tissues were taken from the mice and cut into small pieces. Several pieces of the tumor tissues were implanted into the armpit under the right front limb of female nude mice (provided by the Division of Experimental Animals of the Medical School of Beijing University). […] Starting on the seventh day, the mice were fed with Icaritin at three dosages. The high dosage was 0.7 mg per mouse per day (about 33 mg/kg/day). The medium dosage was 0.35 mg per mouse per day (about 16.5 mg/kg/day). The low dosage was 0.18 mg per mouse per day (about 8.25 mg/kg/day). […] Olive oil was used as a negative control wherein each mouse was fed with 0.1 ml of olive oil. […] Then the mice were sacrificed and the tumor tissues were dissected from the mice and weighed. Two parallel experiments were done for the tests. Ten female BALB/c-nu mice were used for each test compounds and each dosages for one of the two parallel experiment. Eight female BALB/c-nu mice were used for each test compounds and each dosages for the other parallel experiment. […] The effect of IC 163 on inhibiting breast cancer growth was tested in the same assay as described above. IC 163 was tested at the dosage of 0.7 mg per mouse per day (about 35 mg/kg/day). […] Olive oil was used as a negative control.

[3] = system: MDA-MB-231 cell xenografts; assay: MDA-MB-231 xenografts in nude mice, established tumors; format: in vivo; details: 5 mg per mouse by gavage every other day for 30 days, FIG. 11
Description: as §1, §2

breast cancer cells = details: background, literature (Liu 2005; Wang 2004; Ye 2005); cited from earlier work
MCF7 cells [4] = assay: MCF7 colony formation; format: cell-based; details: zero to 25 μM, as concentration rose, 10 days, FIG. 5a
MDA-MB-231 cells [5] = assay: MDA-MB-231 colony formation, crystal violet staining; format: cell-based; details: 10 days, FIG. 4
[6] = system: human endometrial cancer Hec1A cells; assay: MTT assay of Hec1A cell growth; format: cell-based; details: 24 hours
Description: Human endometrial cancer Hec1A cells (ATCC No.: HTB-112™) were subseeded in a 96-well culture plate at a concentration of 5×10^3 cells/well and were cultured in DMEM containing high glucose medium (HyClone, SH30022.01B). […] The cells then were incubated with 0.5 mg/ml 3-(4,5-dimethylthiazol-2-yl)-2,5-diphenyltetrazolium bromide (MTT) for 4 hours at 37° C. wherein the MTT was reduced to insoluble purple formazan by the active mitochondrial reductase enzymes in the living cells. Then the excessive liquid MTT was removed from the reaction mixture. 150 μl of DMSO was added to dissolve the purple formazan into a colored solution. The optical density of the colored solution was measured at 490 nm using a microplate reader.

[7] = system: cervical cancer U14 cells; assay: Murine cervical cancer U14 tumors in ICR mice; format: in vivo; details: 14 days, FIG. 15a
Description: The original ICR mice containing cervical cancer U14 cell line were provided by the Institute of Materia Medica, Chinese Academy of Medical Sciences. Five ml of abdominal fluid was drawn from the lower abdomen of the mice. The fluid was diluted at the ratio of 1:5 with saline. 0.2 ml of the diluted abdominal fluid was injected subcutaneously at the right front limb and chest of female ICR mice (provided by the Division of Experimental Animals of the Medical School of Beijing University). After the implantation, the mice were treated right away with Icaritin, Tamoxifen and olive oil, respectively. Icaritin was given at three dosages. The high dosage was 0.7 mg per mouse per day (about 33 mg/kg/day). The medium dosage was 0.35 mg per mouse per day (about 16.5 mg/kg/day). The low dosage was 0.18 mg per mouse per day (about 8.25 mg/kg/day). […] Olive oil was used as a negative control wherein each mouse was fed with 0.1 ml of olive oil. […] Then the mice were sacrificed and the tumor tissues were dissected from the mice and weighed. Ten female ICR mice were used for each test compounds and dosages. Three parallel experiments were carried out. […] The tumor growth inhibition rate was calculated using the same formula as Example 11.

H226 Lung Cancer Cells = assay: H226 lung cancer surviving cell count; format: cell-based; details: two weeks, FIG. 10
MDA-MB-231 cells [8] = assay: MDA-MB-231 cells treated for a week, examined under microscope; format: cell-based; details: 10 μM, one week, FIG. 3
[9] = system: MDA-MB-231 cell xenografts; assay: MDA-MB-231 xenografts in nude mice, treatment right after implantation; format: in vivo; details: 1 mg per mouse twice a week for 36 days, started right after injection, FIG. 13
Description: Tumor formation was assayed in female athymic nude mice (6 weeks old, strain CDI nu/nu, Charles River Breeding Laboratory). MDA-MB-231 cells at the concentration of 1×10^7 cells in 200 μl Matrigel (BD Biosciences) were injected into the mice by the mammary fatpad injection. A group of 5 mice were injected with the breast cancer cells. The mice were treated with Icaritin right after the injection. […] Then the mice were sacrificed and the tumor tissues were dissected from the mice, photographed and weighed.

[10] = system: Tamoxifen resistant MCF7 cells (MCF7/TAM); assay: Surviving cell count, Tamoxifen resistant MCF7 cells; details: two weeks, FIG. 6
LnCap cells = assay: LNCap prostate cancer surviving cell count; format: cell-based; details: two weeks, FIG. 10
[11] = system: MCF7 cells over-expressing ER-α36 (MCF7/ER36); assay: Surviving cell count, MCF7 cells over-expressing ER-α36; format: cell-based; details: two weeks, FIG. 6
From the text: MCF7 cells over-expressing ER-α36 were made by stably transfecting MCF cells with an ER-α36 expression vector. The ER-α36 expression vector was constructed by cloning a 1.1-kb cDNA fragment of ER-α36 from pBluescript plasmid into a mammalian expression vector pCB6+ as described before (Wang et al., 2005, BBRC, 336:1023-1027). The constructed ER-α36 expression vector contains the cytomegalovirus (CMV) early promoter. MCF7 cells were transfected with the ER-α36 expression vector using the FuGene6 transfection reagent (Roche Molecular Biochemicals). Forty-eight hours after transfection, the cells were re-plated and selected with 500 μg/ml of G418 (Invitrogen) for about two weeks until colonies appeared. The clones were then pooled and cultured to confirm the expression of ER-α36 by Western blot analysis.

PC3 cells = assay: PC3 prostate cancer surviving cell count; format: cell-based; details: two weeks, FIG. 10
[12] = high dosage 0.7 mg per mouse per day
[13] = low dosage 0.18 mg per mouse per day
[14] = medium dosage 0.35 mg per mouse per day

Structure (SMILES): COc1ccc(-c2oc3c(CC=C(C)C)c(O)cc(O)c3c(=O)c2O)cc1 [Icaritin]
- tumor size (MCF7 cell xenografts): significant tumor size reduction
- numbers of surviving MCF7 cells (MCF7 cells [1]; 5 μM and up, FIG. 5b): significantly reduced
- growth of cells (numbers of survived cells) (MCF7 cells [1]; 5 μM, FIG. 6): significantly inhibited
- numbers of cells (MCF7 cells [1]; 10 μM, FIG. 6): near zero
- tumor weight compared with negative controls [2, 12]: reduced tumor weights
- tumor weight compared with negative controls [2, 13]: reduced tumor weights
- tumor weight compared with negative controls [2, 14]: reduced tumor weights
- tumor size [3]: significant tumor size reduction
- proliferation of breast cancer cells (breast cancer cells): significantly increase
- number of colonies of MCF7 cells (MCF7 cells [4]): significantly reduced
- numbers of colonies of MDA-MB-231 cells (MDA-MB-231 cells [5]; 5 μM): decreased
- numbers of colonies of MDA-MB-231 cells (MDA-MB-231 cells [5]; 10 μM): reduced to near zero
- effect on the growth of Hec1A cells ([6]; 0 to 5 μM): significant inhibitory effect
- optical density at 490 nm (MTT) ([6]; increased concentrations 0 to 5 μM, FIG. 21): declined smoothly
- tumor weight compared with negative control [7, 12]: reduced tumor weights
- tumor weight compared with negative control [7, 13]: reduced tumor weights
- tumor weight compared with negative control [7, 14]: reduced tumor weights
- numbers of cells (H226 Lung Cancer Cells; 5 μM): decreased
- numbers of cells (H226 Lung Cancer Cells; 10 μM): further reduced
- cell morphology (MDA-MB-231 cells [8]): features characteristic of apoptotic cells
- number of surviving cells (MDA-MB-231 cells [8]): dramatically reduced
- tumor size [9]: tumor size reduction
- growth of cells (numbers of survived cells) ([10]; 5 μM): significantly inhibited
- inhibition compared with MCF7 cells ([10]; 5 μM): stronger
- numbers of cells ([10]; 10 μM): near zero
- numbers of cells (LnCap cells; 5 μM): decreased
- numbers of cells (LnCap cells; 10 μM): further reduced
- growth of cells (numbers of survived cells) ([11]; 5 μM): significantly inhibited
- inhibition compared with MCF7 cells ([11]; 5 μM): stronger
- numbers of cells ([11]; 10 μM): near zero
- numbers of cells (PC3 cells; 5 μM): decreased
- numbers of cells (PC3 cells; 10 μM): further reduced
